These results are taken from patent US11685732B2, “MYST family histone acetyltransferase inhibitors” (Epizyme, Inc., priority 2017, dated 2023).

What is called IC50 is the concentration needed to halve the response being measured.

The target in assay [1] is KAT-6A (Homo sapiens (Human), UniProt Q92794). Description: KAT-6A biochemical inhibition assay (SAMDI mass spectrometry). The gist of the method: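 Enzyme (12.5 nM final) pre-incubated with serially diluted compounds (2% DMSO final) in 50 mM Tris pH 8.0 with Tween20, gelatin and 1 mM DTT. Reaction started with 1 μM peptide substrate and 1 μM acetyl-CoA, run 90 min at 25 °C, quenched with 0.5% formic acid, read by SAMDI-TOF mass spectrometry; IC50 derived.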
Sequence of KAT-6A (Q92794 other isoform, or with tags, fused parts or gaps): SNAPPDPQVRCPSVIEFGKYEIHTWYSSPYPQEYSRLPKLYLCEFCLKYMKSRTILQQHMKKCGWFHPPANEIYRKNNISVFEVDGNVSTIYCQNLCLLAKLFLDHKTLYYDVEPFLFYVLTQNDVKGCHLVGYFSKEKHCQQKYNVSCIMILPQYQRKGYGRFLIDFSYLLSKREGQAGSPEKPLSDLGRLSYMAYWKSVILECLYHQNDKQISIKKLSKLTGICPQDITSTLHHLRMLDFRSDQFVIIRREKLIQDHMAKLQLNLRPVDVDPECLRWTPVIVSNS

The target in assay [2] is KAT-8 (Homo sapiens (Human), UniProt Q9H7Z6). Description: KAT-8 biochemical inhibition assay (SAMDI mass spectrometry). The method in brief: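 Compounds in 2% DMSO pre-incubated with 12.5 nM enzyme in 50 mM Tris pH 8.0 with Tween20, gelatin and 1 mM DTT. Then 1 μM peptide and 5 μM acetyl-CoA were added, 90 min at 25 °C; formic acid stop and SAMDI-TOF mass spectrometry for IC50.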
Sequence of KAT-8 (Q9H7Z6 other isoform, or with tags, fused parts or gaps): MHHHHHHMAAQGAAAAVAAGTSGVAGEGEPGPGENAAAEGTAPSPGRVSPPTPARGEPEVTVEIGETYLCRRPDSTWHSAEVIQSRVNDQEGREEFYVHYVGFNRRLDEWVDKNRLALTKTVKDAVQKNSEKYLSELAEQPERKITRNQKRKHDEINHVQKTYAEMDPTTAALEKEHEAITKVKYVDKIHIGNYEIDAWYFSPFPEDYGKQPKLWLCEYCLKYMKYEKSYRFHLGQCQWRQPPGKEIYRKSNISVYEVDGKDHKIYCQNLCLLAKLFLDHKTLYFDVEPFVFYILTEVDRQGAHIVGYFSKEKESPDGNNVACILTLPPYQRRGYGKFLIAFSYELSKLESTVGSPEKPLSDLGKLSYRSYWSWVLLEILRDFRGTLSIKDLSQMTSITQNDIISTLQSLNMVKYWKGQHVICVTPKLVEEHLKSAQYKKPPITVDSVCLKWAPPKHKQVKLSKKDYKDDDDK

Assay [3] addresses KAT-7 (Homo sapiens (Human), UniProt O95251). Put plainly: KAT-7 biochemical inhibition assay (SAMDI mass spectrometry). The method in brief: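 KAT-7 (6 nM) was pre-incubated with serially diluted compound (2% DMSO) in Tris pH 8.0 with DTT. Reaction with 1 μM peptide and 2 μM acetyl-CoA ran 120 min at 25 °C and was stopped with 0.5% formic acid. Acetylation was read by SAMDI-TOF mass spectrometry to give IC50.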

In assay [4] the target is KAT-5 (Homo sapiens (Human), UniProt Q92993). Description: KAT-5 biochemical inhibition assay (SAMDI mass spectrometry). The gist of the method:
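KAT-5 at 9 nM final was preincubated with serially diluted compound (2% DMSO) in 50 mM Tris pH 8.0 with 1 mM DTT. Reaction ran with 1 μM peptide substrate and 0.5 μM acetyl-CoA for 90 min at 25° C, was quenched with 0.5% formic acid, and was read by SAMDI-TOF mass spectrometry.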

Sequence of KAT-7 (O95251 other isoform, or with tags, fused parts or gaps): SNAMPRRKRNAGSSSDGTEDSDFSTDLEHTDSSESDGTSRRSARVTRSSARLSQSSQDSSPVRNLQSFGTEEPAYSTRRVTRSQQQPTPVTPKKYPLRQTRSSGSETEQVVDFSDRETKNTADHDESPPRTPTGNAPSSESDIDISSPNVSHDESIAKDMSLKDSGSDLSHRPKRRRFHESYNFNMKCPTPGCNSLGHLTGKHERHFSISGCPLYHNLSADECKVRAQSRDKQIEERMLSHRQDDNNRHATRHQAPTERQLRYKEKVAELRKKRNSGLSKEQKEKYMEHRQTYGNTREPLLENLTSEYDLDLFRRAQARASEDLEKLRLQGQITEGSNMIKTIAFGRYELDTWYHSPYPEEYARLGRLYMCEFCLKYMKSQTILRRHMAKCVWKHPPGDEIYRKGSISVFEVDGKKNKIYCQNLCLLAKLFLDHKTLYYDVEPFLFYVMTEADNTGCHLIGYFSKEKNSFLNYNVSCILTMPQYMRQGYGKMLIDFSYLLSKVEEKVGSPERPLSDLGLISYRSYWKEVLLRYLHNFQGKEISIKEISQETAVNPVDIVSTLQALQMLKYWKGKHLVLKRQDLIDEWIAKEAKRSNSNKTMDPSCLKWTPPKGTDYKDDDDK
Sequence of KAT-5 (Q92993 other isoform, or with tags, fused parts or gaps): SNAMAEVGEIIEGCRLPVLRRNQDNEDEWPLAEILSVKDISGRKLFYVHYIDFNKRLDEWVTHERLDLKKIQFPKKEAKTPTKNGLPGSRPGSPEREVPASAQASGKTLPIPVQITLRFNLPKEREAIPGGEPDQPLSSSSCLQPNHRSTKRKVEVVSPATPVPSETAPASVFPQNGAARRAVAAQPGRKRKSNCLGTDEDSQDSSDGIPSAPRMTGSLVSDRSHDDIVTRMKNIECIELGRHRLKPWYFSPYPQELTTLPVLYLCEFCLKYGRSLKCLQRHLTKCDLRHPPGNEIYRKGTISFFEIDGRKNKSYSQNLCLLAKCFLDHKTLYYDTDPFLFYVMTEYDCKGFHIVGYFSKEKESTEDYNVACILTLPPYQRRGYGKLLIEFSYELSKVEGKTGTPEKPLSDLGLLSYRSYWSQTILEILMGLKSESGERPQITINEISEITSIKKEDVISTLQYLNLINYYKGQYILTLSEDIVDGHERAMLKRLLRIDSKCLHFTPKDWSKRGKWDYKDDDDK

For the compound `CC(=O)N1CCCC(CS(=O)(=O)NNC(=O)c2cc(-c3cn(C)cn3)cc(C)c2F)C1` (stereo not shown) [Compound I-142], the IC50 in assay [1] was under 10 µM; in assay [2], over 100 µM; in assay [3], under 10 µM; in assay [4], under 10 µM.
As to `Cc1cc(-c2cn(CCO)cn2)cc(C(=O)NNS(=O)(=O)C2CCOCC2)c1F` [Compound I-143], the IC50 in assay [1] was 50 to 100 µM; in assay [2], over 100 µM; in assay [3], 50 to 100 µM; in assay [4] it was 50 to 100 µM.
Take `Cn1cnc(-c2cc(Cl)c(Cl)c(C(=O)NNS(=O)(=O)CC3CCCCC3)c2)c1` [Compound I-144]: the IC50 was over 100 µM in assay [1], over 100 µM in assay [2], under 10 µM in assay [3] and over 100 µM in assay [4].
For the compound `Cc1cc(-c2cn(C)cn2)cc(C(=O)NNS(=O)(=O)CC2CCCCC2)c1C` [Compound I-145], the IC50 in assay [1] was over 100 µM; in assay [2] it was over 100 µM; in assay [3], 10 to 50 µM; in assay [4], over 100 µM.
As to `Cc1cc(-c2cn(CCO)cn2)cc(C(=O)NNS(=O)(=O)CC2CCOCC2)c1F` [Compound I-146], the IC50 is 10 to 50 µM in assay [1], over 100 µM in assay [2], 10 to 50 µM in assay [3] and 10 to 50 µM in assay [4].
With `Cc1cc(-c2cn(C)c(Cl)n2)cc(C(=O)NNS(=O)(=O)CC2CCCCC2)c1C` [Compound I-147], the IC50 in assay [1], in assay [2], in assay [3] and in assay [4] was over 100 µM throughout.
`COCC(=O)N1CCCC(CS(=O)(=O)NNC(=O)c2cc(-c3cn(CCO)cn3)cc(C)c2F)C1` (stereo not shown) [Compound I-148]: the IC50 in assay [1], in assay [2], in assay [3] and in assay [4] was 10 to 50 µM in each case.
Consider `Cn1cnc(-c2cc(F)c(F)c(C(=O)NNS(=O)(=O)C3CCOCC3)c2)c1` [Compound I-149], for which the IC50 was 10 to 50 µM in assay [1], 10 to 50 µM in assay [2], under 10 µM in assay [3] and 10 to 50 µM in assay [4].
As to `Cn1cnc(-c2cc(F)c(F)c(C(=O)NNS(=O)(=O)CC3CCOCC3)c2)c1` [Compound I-150], the IC50 is 10 to 50 µM in assay [1], 10 to 50 µM in assay [2], under 10 µM in assay [3] and 10 to 50 µM in assay [4].
As to `CCCn1cc(-c2cc(C)c(F)c(C(=O)NNS(=O)(=O)C3CCCCC3)c2)cn1` [Compound I-151], the IC50 in assay [1] is over 100 µM; in assay [2], over 100 µM; in assay [3], 10 to 50 µM; in assay [4], 50 to 100 µM.
Consider `COCCn1cc(-c2cc(C)c(F)c(C(=O)NNS(=O)(=O)C3CCCCC3)c2)cn1` [Compound I-152], for which the IC50 in assay [1] is over 100 µM; in assay [2] it was over 100 µM; in assay [3], over 100 µM; in assay [4], 10 to 50 µM.
On to `Cc1cc(-c2cncn2C)cc(C(=O)NNS(=O)(=O)C2CCCCC2)c1F` [Compound I-153], for which the IC50 in assay [1], in assay [2], in assay [3] and in assay [4] was over 100 µM each time.
In the case of `CCn1cc(-c2cc(C)c(F)c(C(=O)NNS(=O)(=O)C3CCCCC3)c2)cn1` [Compound I-154], the IC50 in assay [1] is over 100 µM; in assay [2], over 100 µM; in assay [3] it was under 10 µM; in assay [4], 10 to 50 µM.
Turning to `Cc1cc(-c2cnn(C(C)C)c2)cc(C(=O)NNS(=O)(=O)C2CCCCC2)c1F` [Compound I-155], the IC50 in assay [1] was over 100 µM; in assay [2], over 100 µM; in assay [3], 10 to 50 µM; in assay [4], over 100 µM.
For the compound `Cc1cc(-c2cnn(C)c2)cc(C(=O)NNS(=O)(=O)C2CCCCC2)c1F` [Compound I-156], the half-inhibitory concentration (IC50) was over 100 µM in assay [1], over 100 µM in assay [2], under 10 µM in assay [3] and 10 to 50 µM in assay [4].
Consider `Cn1cc(-c2cc(Cl)c(F)c(C(=O)NNS(=O)(=O)CC3CCCCC3)c2)cn1` [Compound I-158], for which the IC50 is 10 to 50 µM in assay [1], over 100 µM in assay [2], under 10 µM in assay [3] and under 10 µM in assay [4].
Take `CNC(=O)N1CC(CS(=O)(=O)NNC(=O)c2cc(-c3cn(C)cn3)cc(Cl)c2F)C1` [Compound I-160]: the half-maximal inhibitory concentration (IC50) in assay [1] was 10 to 50 µM; in assay [2] it was 10 to 50 µM; in assay [3], under 10 µM; in assay [4], 10 to 50 µM.
Regarding `COc1ccc(CN(C)C(=O)N[C@H]2C[C@@H](CS(=O)(=O)NNC(=O)c3cc(-c4cn(C)cn4)cc(Cl)c3F)C2)cc1` [Compound I-161], the IC50 in assay [1] was under 10 µM; in assay [2], 10 to 50 µM; in assay [3], under 10 µM; in assay [4], under 10 µM.
For `COc1ccc(CN(C)C(=O)N2CC[C@H](CS(=O)(=O)NNC(=O)c3cc(-c4cn(C)cn4)cc(Cl)c3F)C2)cc1` [Compound I-162], the IC50 was 10 to 50 µM in assay [1], 10 to 50 µM in assay [2], under 10 µM in assay [3] and under 10 µM in assay [4].
As to `CN(C)C(=O)N[C@H]1CC[C@@H](CS(=O)(=O)NNC(=O)c2cc(-c3cn(C)cn3)cc(Cl)c2F)CC1` [Compound I-163], the IC50 in assay [1] is under 10 µM; in assay [2], 10 to 50 µM; in assay [3] it was under 10 µM; in assay [4], under 10 µM.
Consider `CCS(=O)(=O)N1CC(CS(=O)(=O)NNC(=O)c2cc(-c3cn(C)cn3)cc(Cl)c2F)C1` [Compound I-164], for which the IC50 was under 10 µM in assay [1], 10 to 50 µM in assay [2], under 10 µM in assay [3] and 10 to 50 µM in assay [4].
For `O=C(NNS(=O)(=O)CC1CCOCC1)c1cc(-n2cncn2)cc(Cl)c1F` [Compound I-165], the IC50 in assay [1], in assay [2], in assay [3] and in assay [4] was 10 to 50 µM each time.
As to `CN(C)C(=O)N1CC(CS(=O)(=O)NNC(=O)c2cc(-c3cn(C)cn3)cc(Cl)c2F)C1` [Compound I-167], the half-maximal inhibitory concentration (IC50) in assay [1] was under 10 µM; in assay [2], 10 to 50 µM; in assay [3] it was under 10 µM; in assay [4], 10 to 50 µM.
As for `CCNC(=O)N1CC(CS(=O)(=O)NNC(=O)c2cc(-c3cn(C)cn3)cc(Cl)c2F)C1` [Compound I-168], the IC50 in assay [1] is 10 to 50 µM; in assay [2], 10 to 50 µM; in assay [3] it was under 10 µM; in assay [4] it was 10 to 50 µM.
With `Cn1cnc(-c2cc(Cl)c(F)c(C(=O)NNS(=O)(=O)CC3CN(C(=O)N4CCC4)C3)c2)c1` [Compound I-169], the IC50 was under 10 µM in assay [1], 10 to 50 µM in assay [2], under 10 µM in assay [3] and 10 to 50 µM in assay [4].
For `Cn1cnc(-c2cc(Cl)c(F)c(C(=O)NNS(=O)(=O)CC3CN(S(=O)(=O)C4CCC4)C3)c2)c1` [Compound I-170], the IC50 in assay [1] is under 10 µM; in assay [2], 10 to 50 µM; in assay [3] it was under 10 µM; in assay [4] it was 10 to 50 µM.
Consider `COc1ccc(CN(C)C(=O)N2CCCC(CS(=O)(=O)NNC(=O)c3cc(-c4cn(C)cn4)cc(Cl)c3F)C2)cc1` (stereo not shown) [Compound I-171], for which the half-inhibitory concentration (IC50) in assay [1] is under 10 µM; in assay [2], 10 to 50 µM; in assay [3], under 10 µM; in assay [4] it was under 10 µM.
For the compound `CNC(=S)N1CC[C@H](CS(=O)(=O)NNC(=O)c2cc(-c3cn(C)cn3)cc(Cl)c2F)C1` [Compound I-172], the IC50 is under 10 µM in assay [1], 10 to 50 µM in assay [2], under 10 µM in assay [3] and under 10 µM in assay [4].
Regarding `Cn1cnc(-c2cc(Cl)c(F)c(C(=O)NNS(=O)(=O)C[C@H]3C[C@@H](NS(C)(=O)=O)C3)c2)c1` [Compound I-173], the IC50 was under 10 µM in assay [1], 10 to 50 µM in assay [2], under 10 µM in assay [3] and under 10 µM in assay [4].
`COc1ccc(CNC(=O)N[C@H]2C[C@H](CS(=O)(=O)NNC(=O)c3cc(-c4cn(C)cn4)cc(Cl)c3F)C2)cc1` [Compound I-174]: the IC50 in assay [1] is under 10 µM; in assay [2], 10 to 50 µM; in assay [3], under 10 µM; in assay [4], under 10 µM.
`COc1ccc(CN(C)C(=O)N[C@H]2C[C@H](CS(=O)(=O)NNC(=O)c3cc(-c4cn(C)cn4)cc(Cl)c3F)C2)cc1` [Compound I-175]: the IC50 in assay [1] was under 10 µM; in assay [2], 10 to 50 µM; in assay [3], under 10 µM; in assay [4], under 10 µM.
For `CNC(=O)N[C@H]1CC[C@H](CS(=O)(=O)NNC(=O)c2cc(-c3cn(C)cn3)cc(Cl)c2F)CC1` [Compound I-176], the IC50 in assay [1] was under 10 µM; in assay [2], 10 to 50 µM; in assay [3], under 10 µM; in assay [4] it was under 10 µM.
As for `COc1ccc(CNC(=O)NC2CCC(CS(=O)(=O)NNC(=O)c3cc(-c4cn(C)cn4)cc(Cl)c3F)CC2)cc1` (stereo not shown) [Compound I-177], the IC50 in assay [1], in assay [2], in assay [3] and in assay [4] was under 10 µM in each case.
On to `CCCS(=O)(=O)N1CC(CS(=O)(=O)NNC(=O)c2cc(-c3cn(C)cn3)cc(Cl)c2F)C1` [Compound I-178], for which the IC50 is under 10 µM in assay [1], 10 to 50 µM in assay [2], under 10 µM in assay [3] and 10 to 50 µM in assay [4].
